# Values of other authors as cited in patent US20060115424A1, “Combination therapy of oxaliplatin and radioactively doped particles treating cancer” (priority 2003, published 2006).
# System: cancer
# Settings: Gray et al (2001) Annals of Oncology 12: 1711-1720
smiles,measurement,value
O=c1[nH]c(=O)n([C@H]2C[C@H](O)[C@@H](CO)O2)cc1F [floxuridine],response rate,17.6%
same,time to disease progression,9.7 months
